Measurements taken from the NIST ThermoML archive (doi:10.1016/j.fluid.2009.07.009).
Numbers after ± are expanded uncertainties.

Test: relative permittivity at zero frequency (dimensionless)
Conditions: 303.15 K; 101.33 kPa; Liquid; Parallel plate capacitor

relative permittivity at zero frequency | SMILES
106.14 ± 0.01 | NC=O [formamide]
36.55 ± 0.22 | CN(C)C=O [dimethylformamide]

SMILES | relative permittivity at zero frequency
CN(C)CCO [2-(N,N-dimethylamino)ethanol] | 17.18 ± 0.1
